Measured values published in patent publication US20230302022A1, “PREVENTING OR MITIGATING CHEMOTHERAPY INDUCED ALOPECIA USING VITAMIN D” (priority 2016, published 2023).
Where “and” joins values, the source holds several entries; their conditions need not be identical. Equal values may be shown once. Entries after “also recorded” stand apart in the source; their conditions may differ.

Assays:
[1] = test system: MCF-7 (breast cancer with p53 mutation); assay: Cell growth / viability assay, MCF-7; type: cell-based
Protocol: (§1) The drug treatment period was usually three days. At the end of the three days, the background OD of the 96-well plate was read at 280 nm, before 20 μL of the “Substrate Cell Titer 96 Aqueous One Solution Reagent” (Promega) was added to each well. The plate was returned to the 37° C. incubator, and its OD at 490 nm was read each hour until an OD of approximately 1.5 was reached. The net OD increase was calculated by subtracting the pre-substrate OD reading.
(§2) The impact of the drug on the cells was calculated by comparing the OD at different concentrations in relation to the OD of the control wells (without the drug).
(§3) Then these pretreated cells were utilized to set up the cell based assay.

[2] = test system: C57BL/6 mice; conditions: cited from earlier work
[3] = Phase I study: serum levels of calcitriol (PK); type: in vivo, human; design: unit not given here; conditions: individual patients
Protocol: Pharmacokinetics (all patients). For the purpose of pharmacokinetic studies (PKs), blood samples will be collected on Day 1 of topical treatment at the following time points: pre-dose, at 2 hours (+/−30 minutes), 4 hours (+/−30 minutes), and 8 hours (+/−1 hour post dose) after a single application on the morning of Day 1. The second application of drug product will be applied 10-14 hours after the initial application and after the 8 hour PK sample. Thereafter, topical application frequency will be twice daily, morning and night. Subsequently, a PK sample will be taken 12 hours (+/−2 hours) after the last dose of each 28 day treatment, before the first application of Day 1 of the next 28 day treatment cycle. This schedule will continue for three consecutive 28 day topical treatment cycles. (PKs will be drawn at weeks 1, 5, 9, and 13. In addition if patients are still on study, a PK will also be drawn at week 54.) Vital signs will be obtained approximately 5 minutes before each blood collection, and the actual collection times will be recorded.
At each collection, collect blood by venipuncture in a serum separator tube(s). Centrifuge at 1200 RCF for 10±5 minutes, and aliquot 1.5 mL of serum each into 2 labeled externally threaded cryogenic vials and immediately freeze. […] Serum samples will be transported with a sufficient amount of dry ice to keep the samples frozen until arrival.
Each patient underwent PK analysis, adverse event monitoring, patient self-assessment diaries (1-10 scale), and blinded photographic assessments. […] Toxicity was determined on a weekly basis during Cycle 1 (i.e., the first 28 days of topical agent application) and subsequently every four weeks. Patients were managed with adequate safety (adverse event) monitoring and pharmacokinetic (PK) analysis in order to determine levels of exposure.

[4] = test system: Sprague Dawley rats; assay: Cyclophosphamide-induced alopecia in neonatal Sprague Dawley rats, 1,25(OH)2D3 in ethanol; type: in vivo, rat; conditions: 0.2 μg 1,25(OH)2D3 in 150 μL ethanol daily day 5-10, all animals
Protocol: Neonatal Rat model and PCA model. Sprague Dawley rats were purchased from Charles River Laboratories (Wilmington, MA). C3H/HeJ mouse were purchased from Jackson Laboratories (Bar Harbour, ME). Rodents were housed and fed according to NIH guidelines. […] Uskokovic (Hoffman-La Roche, Nutley, NJ). For experiments involving C3H/HeJ mice, 1,25(OH)2D3 was purchased from Sigma (St. Louis, M0). Topical application of 1,25(OH)2D3. 1,25(OH)2D3 was dissolved in absolute ethanol and applied topically with an applicator. Control animals were similarly treated with vehicle only. Animals were then isolated for a period of 3 hours following which the treated area was washed with soap and water and dried. For CIA experiments, 1,25(OH)2D3 was given daily beginning on day 5 after birth and ending on day 10. […] For CIA and PCA, the experimental group was treated with 0.2 μg of 1,25(OH)2D3 in 150 μL of absolute ethanol applied topically over the head and neck. In both instances, the control group received ethanol vehicle only. […] Both chemotherapies were started at 11 days of age. Alopecia was recorded on the tenth day after the first dose of chemotherapy. […] Rats were randomized into two groups of ten rats each. One group received vehicle control, while the other received 0.2 μg 1,25(OH)2D3. […] Animals were observed until complete hair regrowth was obtained.

[5] = test system: PC-3; assay: Cell viability assay, PC-3; type: cell-based; conditions: PC-3, 0.1 μg/mL calcitriol for two passages
Protocol: as §1, §2, §3

[6] = test system: PaCa2 (pancreatic carcinoma); assay: Cell growth / viability assay, PaCa2; type: cell-based
Protocol: as §1, §2, §3

[7] = Chemical stability; type: physicochemical
[8] = test system: Long Evans and Sprague Dawley rats; assay: Chemotherapy-induced alopecia (CIA) in the neonatal rat, topical calcitriol formulation; type: in vivo
[9] = test system: HepG2 (liver cancer); assay: Cell growth / viability assay, HepG2; type: cell-based
Protocol: as §1, §2, §3

[10] = test system: Sprague-Dawley or Long Evans rats; assay: CIA in 5-day-old Sprague-Dawley or Long Evans rats, calcitriol 1, 2 or 3 μg/mL; type: in vivo, rat

SMILES: C=C1/C(=C\C=C2/CCC[C@]3(C)[C@@H]([C@H](C)CCCC(C)(C)O)CC[C@@H]23)C[C@@H](O)C[C@@H]1O [Calcitriol, (5Z,7E)-9,10-secocholesta-5,7.10(19Hriene-1 a,33.25-triol]
- effect of calcitriol on the cytotoxic effect of Doxorubicin ([1]; MCF-7): did not appear to appreciably alter
- response to doxorubicin, cisplatin and erlotinib after calcitriol exposure ([1]; MCF-7, 0.1 μg/mL calcitriol for two passages): did not alter
- follicular apoptosis induced by cyclophosphamide ([2]; C57BL/6 mice, topical): significantly diminish the degree of follicular apoptosis
- prevention of cyclophosphamide-induced alopecia ([2]; female C57BL/6 adolescent mice): failed to demonstrate efficacy
- regrowth of pigmented hair shafts ([2]; female C57BL/6 adolescent mice): significantly accelerated, enhanced, and quantitatively improved
- Serum Levels of Calcitriol ([3]; 5 μg/mL, Week 1, Hour 0 (pre-dose)): 43.8 and 47.9 and 55.3
- Serum Levels of Calcitriol ([3]; 5 μg/mL, Week 1, Hour 2): 38.8 and 48.4 and 46.2
- Serum Levels of Calcitriol ([3]; 5 μg/mL, Week 1, Hour 4): 45 and 51 and 58.7
- Serum Levels of Calcitriol ([3]; 5 μg/mL, Week 1, Hour 8): 33.2 and 44.4 and 39.5
- Serum Levels of Calcitriol ([3]; 5 μg/mL, Week 5, Hour 0): 57.5 and 49.6 and 61.8
- Serum Levels of Calcitriol ([3]; 5 μg/mL, Week 9, Hour 0): 63.2 and 46.5
- Serum Levels of Calcitriol ([3]; 5 μg/mL, Week 13, Hour 0): 56 and 54.6
- Serum Levels of Calcitriol ([3]; 10 μg/mL, Week 1, Hour 0 (pre-dose)): 37.7 and 60 and 32
- Serum Levels of Calcitriol ([3]; 10 μg/mL, Week 1, Hour 2): 32.9 and 59 and 33
- Serum Levels of Calcitriol ([3]; 10 μg/mL, Week 1, Hour 4): 36.7 and 57 and 31
- Serum Levels of Calcitriol ([3]; 10 μg/mL, Week 1, Hour 8): 50 and 28
- Serum Levels of Calcitriol ([3]; 10 μg/mL, Week 5, Hour 0): 83.2 and 32 and 44
- Serum Levels of Calcitriol ([3]; 10 μg/mL, Week 9, Hour 0): 41
- Serum Levels of Calcitriol ([3]; 10 μg/mL, Week 13, Hour 0): 25.9
- Serum Levels of Calcitriol ([3]; 20 μg/mL, Week 1, Hour 0 (pre-dose)): 110 and 33.7 and 41 and 46.8 and 40
- Serum Levels of Calcitriol ([3]; 20 μg/mL, Week 1, Hour 2): 90 and 38 and 54.1 and 40
- Serum Levels of Calcitriol ([3]; 20 μg/mL, Week 1, Hour 4): 85 and 22.4 and 39 and 50.1 and 41
- Serum Levels of Calcitriol ([3]; 20 μg/mL, Week 1, Hour 8): 65 and 26.4 and 38 and 53.7 and 39
- Serum Levels of Calcitriol ([3]; 20 μg/mL, Week 5, Hour 0): 27.3 and 98 and 56.4
- Serum Levels of Calcitriol ([3]; 20 μg/mL, Week 9, Hour 0): 64.9 and 37.7
- Serum Levels of Calcitriol ([3]; 40 μg/mL, Week 1, Hour 0 (pre-dose)): 44.7
- Serum Levels of Calcitriol ([3]; 40 μg/mL, Week 1, Hour 2): 75.2 and 67.1
- Serum Levels of Calcitriol ([3]; 40 μg/mL, Week 1, Hour 4): 56.1 and 68.4
- Serum Levels of Calcitriol ([3]; 40 μg/mL, Week 1, Hour 8): 30.1 and 66.9
- Serum Levels of Calcitriol ([3]; 40 μg/mL, Week 9, Hour 0): 37.3
- Serum Levels of Calcitriol ([3]; 40 μg/mL, Week 13, Hour 0): 92 and 46.7
- Serum Levels of Calcitriol ([3]; 60 μg/mL, Week 1, Hour 0 (pre-dose)): 29.1 and 36.4
- Serum Levels of Calcitriol ([3]; 60 μg/mL, Week 1, Hour 2): 21.3 and 38.5 and 42
- Serum Levels of Calcitriol ([3]; 60 μg/mL, Week 1, Hour 4): 24.7 and 41.2 and 42.9
- Serum Levels of Calcitriol ([3]; 60 μg/mL, Week 1, Hour 8): 23.3 and 39.4 and 41.5
- Serum Levels of Calcitriol ([3]; 60 μg/mL, Week 5, Hour 0): 65.4 and 81.6
- Serum Levels of Calcitriol ([3]; 60 μg/mL, Week 9, Hour 0): 60.7 and 61.5
- Serum Levels of Calcitriol ([3]; 60 μg/mL, Week 13, Hour 0): 45
- Serum Levels of Calcitriol ([3]; 80 μg/mL, Week 1, Hour 0 (pre-dose)): 28.3 and 29.4 and 55.7
- Serum Levels of Calcitriol ([3]; 80 μg/mL, Week 1, Hour 2): 31.8 and 35.6 and 64.8
- Serum Levels of Calcitriol ([3]; 80 μg/mL, Week 1, Hour 4): 29.6 and 42.1 and 61.4
- Serum Levels of Calcitriol ([3]; 80 μg/mL, Week 1, Hour 8): 36.6 and 58.9
- Serum Levels of Calcitriol ([3]; 80 μg/mL, Week 5, Hour 0): 95.5
- cyclophosphamide-induced alopecia [4]: did not develop alopecia
- response to doxorubicin, cisplatin and erlotinib after calcitriol exposure [5]: did not alter
- effect of calcitriol on cell growth ([6]; PaCa2, wide range of calcitriol concentrations): no significant growth promoting or growth inhibiting effects; also recorded: not responsive
- effect of calcitriol on the cytotoxic effect of Doxorubicin ([6]; PaCa-2): did not appear to appreciably alter
- 5-FU ED50 curve with vs without calcitriol ([6]; PaCa-2, 0.1 μg/mL calcitriol): not significantly different
- response to doxorubicin, cisplatin and erlotinib after calcitriol exposure ([6]; PaCa-2, 0.1 μg/mL calcitriol for two passages): did not alter
- Chemical Stability [7]: Stable at room temperature
- protection from cytarabine-induced alopecia [8]: protective effect
- effect of calcitriol on the cytotoxic effect of Doxorubicin ([9]; Hep-G2): did not appear to appreciably alter
- 5-FU ED50 curve with vs without calcitriol ([9]; Hep-G2, 0.1 μg/mL calcitriol): not significantly different
- response to doxorubicin, cisplatin and erlotinib after calcitriol exposure ([9]; Hep-G2, 0.1 μg/mL calcitriol for two passages): did not alter
- location of hair growth ([10]; 1 μg/mL): limited to the treated area
- location of hair growth ([10]; 3 μg/mL): also observed on the dorsal region
- protection from CIA ([10]; 6-hour exposure): complete protection
- protection from CIA ([10]; 1.5 hour exposure): no protection
